# Article PMC8640678 (Journal of Pesticide Science, 2021)
# How the values were obtained:
# HcbA3C-His [1] = experiment: spectrofluorometric titration; assay type: binding, Nocardioides sp. PD653; conditions: oxidized FMN; no NADH stated; cited from earlier work
# HcbA3C-His [2] = experiment: NADH oxidation at […] nm, steady-state fit; assay type: biochemical, Nocardioides sp. PD653; conditions: 1–8 µM FMN, 10–120 µM NADH, 25 nM enzyme; ping-pong; cited from earlier work
# HcbB3 with HcbB2 = target: T1, HcbB3 with HcbB2 (Nocardioides sp. PD653, UniProt A0A1V1W0L1); experiment: PCP dissipation by recombinant E. coli cells; assay type: cell-based; conditions: co-expressed HcbB2; whole cells
# T1 sequence (A0A1V1W0L1 1-506): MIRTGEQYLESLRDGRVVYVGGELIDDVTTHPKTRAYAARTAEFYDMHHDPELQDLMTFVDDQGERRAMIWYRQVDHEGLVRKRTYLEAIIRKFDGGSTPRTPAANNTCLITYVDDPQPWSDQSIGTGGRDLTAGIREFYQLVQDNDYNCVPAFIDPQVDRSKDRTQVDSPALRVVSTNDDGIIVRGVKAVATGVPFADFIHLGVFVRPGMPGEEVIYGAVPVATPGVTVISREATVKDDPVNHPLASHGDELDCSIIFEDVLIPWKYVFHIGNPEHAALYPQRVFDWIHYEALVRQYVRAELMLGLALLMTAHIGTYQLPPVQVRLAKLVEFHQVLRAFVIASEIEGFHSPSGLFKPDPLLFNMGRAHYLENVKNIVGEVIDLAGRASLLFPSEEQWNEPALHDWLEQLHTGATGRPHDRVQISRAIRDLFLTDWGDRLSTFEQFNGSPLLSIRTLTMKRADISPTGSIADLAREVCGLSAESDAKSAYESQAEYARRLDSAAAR
SMILES,Kd (HcbA3C-His [1]) [nM],Km (HcbA3C-His [2]) [µM],PCP dissipation by recombinant E. coli cells (HcbB3 with HcbB2)
Cc1cc2nc3c(=O)[nH]c(=O)nc-3n(C[C@H](O)[C@H](O)[C@H](O)COP(=O)(O)O)c2cc1C [FMN],750 ± 170,4.43 ± 0.69,
NC(=O)C1=CN([C@@H]2O[C@H](COP(=O)(O)OP(=O)(O)OC[C@H]3O[C@@H](n4cnc5c(N)ncnc54)[C@H](O)[C@@H]3O)[C@@H](O)[C@H]2O)C=CC1 [NADH],,51.7 ± 11.6,
Oc1c(Cl)c(Cl)c(Cl)c(Cl)c1Cl [PCP],,,co-expression of hcbB1 and hcbB3 or hcbB2 and hcbB3 led to significant PCP dissipation activity
